# pIC50: −log10 of the molar value.
# Molecular target: Metabotropic glutamate receptor 1 (Homo sapiens, UniProt Q13255)
# Experiment: Negative allosteric modulation of human mGluR1 expressed in HEK293A cells assessed as inhibition of glutamate-induced calcium mobilization
# Sequence of Metabotropic glutamate receptor 1 (Q13255 whole entry): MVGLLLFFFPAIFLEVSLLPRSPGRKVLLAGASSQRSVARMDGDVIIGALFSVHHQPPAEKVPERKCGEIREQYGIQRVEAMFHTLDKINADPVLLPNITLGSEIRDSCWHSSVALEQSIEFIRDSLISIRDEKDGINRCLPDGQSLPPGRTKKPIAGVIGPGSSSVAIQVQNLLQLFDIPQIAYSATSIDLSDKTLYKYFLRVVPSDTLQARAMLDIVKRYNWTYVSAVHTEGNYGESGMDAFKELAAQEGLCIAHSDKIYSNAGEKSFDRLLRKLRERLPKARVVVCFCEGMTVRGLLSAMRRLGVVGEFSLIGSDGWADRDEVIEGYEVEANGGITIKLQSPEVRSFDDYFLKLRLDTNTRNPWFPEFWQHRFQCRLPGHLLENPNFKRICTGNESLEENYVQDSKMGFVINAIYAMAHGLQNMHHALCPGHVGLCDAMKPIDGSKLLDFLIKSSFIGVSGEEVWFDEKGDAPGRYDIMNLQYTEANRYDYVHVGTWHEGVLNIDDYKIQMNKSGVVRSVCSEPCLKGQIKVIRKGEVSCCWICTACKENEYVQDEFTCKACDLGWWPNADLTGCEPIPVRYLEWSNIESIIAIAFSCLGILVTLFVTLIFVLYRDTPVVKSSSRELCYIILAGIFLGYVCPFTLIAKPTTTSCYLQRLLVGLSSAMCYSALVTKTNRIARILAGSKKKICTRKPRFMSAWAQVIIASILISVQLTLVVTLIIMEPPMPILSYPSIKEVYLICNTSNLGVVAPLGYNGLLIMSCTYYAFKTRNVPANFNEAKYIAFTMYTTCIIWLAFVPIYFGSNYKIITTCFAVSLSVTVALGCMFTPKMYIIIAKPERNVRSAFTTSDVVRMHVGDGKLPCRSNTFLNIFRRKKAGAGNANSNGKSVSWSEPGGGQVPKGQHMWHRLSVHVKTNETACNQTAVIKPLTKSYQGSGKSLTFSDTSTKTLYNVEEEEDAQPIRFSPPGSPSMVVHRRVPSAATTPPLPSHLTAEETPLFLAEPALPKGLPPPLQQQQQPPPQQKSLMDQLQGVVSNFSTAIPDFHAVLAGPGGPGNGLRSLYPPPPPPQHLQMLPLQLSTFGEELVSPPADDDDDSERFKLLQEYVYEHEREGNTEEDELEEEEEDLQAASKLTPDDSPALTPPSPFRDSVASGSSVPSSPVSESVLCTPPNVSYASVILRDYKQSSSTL
row,SMILES,pIC50
1,C[C@@H]1CN(C(=O)C2CCCCC2)CCN1c1ccccn1,< 4.50
2,C[C@@H]1CN(C(=O)C2CC2)CCN1c1ccccn1,< 4.50
3,C[C@@H]1CN(C(=O)[C@H]2CC[C@H](C)CC2)CCN1c1ccccn1,< 4.50
4,C[C@@H]1CN(C(=O)C23C4C5C6C4C2C6C53)CCN1c1ccccn1 (stereo partly drawn),< 4.50
5,C[C@@H]1CN(C(=O)C(C)(C)C)CCN1c1ccccn1,< 4.50
6,C[C@@H]1CN(c2ccccn2)CCN1C(=O)C1CC1,< 4.50
7,C[C@@H]1CN(c2ccccn2)CCN1C(=O)C(C)(C)C,< 4.50
8,C[C@@H]1CN(C(=O)C23CC4CC(CC(C4)C2)C3)CCN1c1ccncc1,< 4.50

# — BindingDB's records for doi:10.1016/j.bmcl.2013.05.020 (Vanderbilt University Medical Center, 2013)
